Values after ≈ are worked out from the molar mass of the structure shown.
Key:
[1] = test system: Bacillus cereus (ATCC 11778); assay: MIC, NCCLS broth microdilution assay; type: cell-based; conditions: A = B. cereus ATCC 11778
Excerpt: (§1) In vitro biological activity data were collected for a variety of microorganisms, including Bacillus cereus (ATCC 11778), Staphylococcus aureus (ATCC 27660, a methicillin resistant strain (MRSA); ATCC 13709, a methicillin sensitive strain (MSSA)); Streptococcus pneumoniae (ATCC 51422, a penicillin resistant strain (PRSP)), Enterococcus faecium (ATCC 51559, a vancomycin resistant strain (VRE)), and Staphylococcus epidermidis (ATCC 12228). Additionally, antifungal activity data were collected for Candida albicans (ATCC 38247).
(§2) Compounds according to this invention were screened for their in vitro activities against selected species of bacteria and fungi. The minimal inhibition concentration (MIC) of these compounds was determined using the National Committee for Clinical Laboratory Standards (NCCLS) broth microdilution assay in microtiter plates, as set forth in: (1) the guidelines of the National. Committee for Clinical Laboratory Standards (NCCLS) Document M7-A4 (NCCLS, 1997); (2) the guidelines of the National Committee for Clinical Laboratory Standards (NCCLS) Document M11-A4 (NCCLS, 1997); and (3) the guidelines and reference method of the National Committee for Clinical Laboratory Standards (NCCLS) Document M27-T (NCCLS, 1995). For antifungal assays, the method recommended in Murray, P R., 1995 Manual of Clinical Microbiology (ASM Press, Washington, D.C.), was employed.

[2] = test system: Staphylococcus aureus (ATCC 13709, a methicillin sensitive strain (MSSA)); assay: MIC, NCCLS broth microdilution assay; type: cell-based; conditions: E = S. aureus ATCC 13709
Excerpt: as §1, §2

[3] = test system: Staphylococcus aureus (ATCC 27660, a methicillin resistant strain (MRSA)); assay: MIC, NCCLS broth microdilution assay; type: cell-based; conditions: F = S. aureus ATCC 27660
Excerpt: as §1, §2

[4] = test system: Candida albicans (ATCC 38247); assay: Antifungal MIC assay; type: cell-based; conditions: B = C. albicans ATCC 38247
Excerpt: as §1, §2

E. faecalis ATCC 29212 = assay: MIC, NCCLS broth microdilution assay; type: cell-based, Enterococcus faecalis; conditions: C = E. faecalis ATCC 29212
Description: as §2

S. pneumoniae ATCC 49619 = assay: MIC, NCCLS broth microdilution assay; type: cell-based, Streptococcus pneumoniae; conditions: H = S. pneumoniae ATCC 49619
Description: as §2

[5] = Staphylococcus aureus, read-out: Minimum Inhibitory Concentration (MIC)

| SMILES | Minimum Inhibitory Concentration (MIC) [1] | Minimum Inhibitory Concentration (MIC) [4] | Minimum Inhibitory Concentration (MIC) (E. faecalis ATCC 29212) | Minimum Inhibitory Concentration (MIC) (S. pneumoniae ATCC 49619) | MIC ([1]; Bacillus cereus, ATCC11778, read-out: Minimum Inhibitory Concentration (MIC)) [µg/mL] | MIC [2, 5] [µg/mL] | MIC [3, 5] [µg/mL] | MIC ([4]; Candida albicans, ATCC38247, read-out: Minimum Inhibitory Concentration (MIC)) [µg/mL] | MIC (E. faecalis ATCC 29212; Enterococcus faecalis, ATCC29212, read-out: Minimum Inhibitory Concentration (MIC)) [µg/mL] | MIC (S. pneumoniae ATCC 49619; Streptococcus pneumoniae, ATCC49619, read-out: Minimum Inhibitory Concentration (MIC)) [µg/mL] | Minimum Inhibitory Concentration (MIC) [2] | Minimum Inhibitory Concentration (MIC) [3] |
| --- | --- | --- | --- | --- | --- | --- | --- | --- | --- | --- | --- | --- |
| Cn1cc(NC(=O)c2cc(NC(=O)c3cc(NC(=O)c4ccc(F)cc4F)c[nH]3)cn2C)cc1C(=O)NCCN1CCOCC1 [Compound A-1] | +++ (+++ = MIC ≦ 4) | >32 µg/mL | +++ (+++ = MIC ≦ 4) | +++ (+++ = MIC ≦ 4) | – | – | – | – | – | – | +++ (+++ = MIC ≦ 4) | ++ (++ = 4 < MIC < 12) |
| C[C@@H]1CN(CCNC(=O)c2cc(NC(=O)c3cc(NC(=O)c4cc(NC(=O)c5ccc(F)cc5F)c[nH]4)cn3C)cn2C)C[C@H](C)O1 [Compound A-5] | + (+ = 12 ≦ MIC ≦ 32) | >32 µg/mL | +++ (+++ = MIC ≦ 4) | ++ (++ = 4 < MIC < 12) | – | – | – | – | – | – | +++ (+++ = MIC ≦ 4) | +++ (+++ = MIC ≦ 4) |
| C[C@@H]1CCC[C@H](C)N1CCNC(=O)c1cc(NC(=O)c2cc(NC(=O)c3cc(NC(=O)c4ccc(F)cc4F)c[nH]3)cn2C)cn1C [Compound A-10] | +++ (+++ = MIC ≦ 4) | ++ (++ = 4 < MIC < 12) | ++ (++ = 4 < MIC < 12) | +++ (+++ = MIC ≦ 4) | – | – | – | – | – | – | +++ (+++ = MIC ≦ 4) | +++ (+++ = MIC ≦ 4) |
| Cn1cc(NC(=O)c2cc(NC(=O)c3cc(NC(=O)c4ccc(F)cc4F)c[nH]3)cn2C)cc1C(=O)NCCCN1CCC(O)CC1 [Compound A-11] | + (+ = 12 ≦ MIC ≦ 32) | + (+ = 12 ≦ MIC ≦ 32) | + (+ = 12 ≦ MIC ≦ 32) | + (+ = 12 ≦ MIC ≦ 32) | – | – | – | – | – | – | ++ (++ = 4 < MIC < 12) | + (+ = 12 ≦ MIC ≦ 32) |
| CN(C)CC(C)(C)CNC(=O)c1cc(NC(=O)c2cc(NC(=O)c3cc(NC(=O)c4ccc(Cl)cc4F)c[nH]3)cn2C)cn1C [Compound A-14] | +++ (+++ = MIC ≦ 4) | + (+ = 12 ≦ MIC ≦ 32) | +++ (+++ = MIC ≦ 4) | +++ (+++ = MIC ≦ 4) | – | – | – | – | – | – | +++ (+++ = MIC ≦ 4) | +++ (+++ = MIC ≦ 4) |
| CN(C)CCCCNC(=O)c1cc(NC(=O)c2cc(NC(=O)c3cc(NC(=O)c4ccc(Cl)cc4F)c[nH]3)cn2C)cn1C [Compound A-15] | +++ (+++ = MIC ≦ 4) | + (+ = 12 ≦ MIC ≦ 32) | +++ (+++ = MIC ≦ 4) | +++ (+++ = MIC ≦ 4) | – | – | – | – | – | – | +++ (+++ = MIC ≦ 4) | +++ (+++ = MIC ≦ 4) |
| Cn1cc(NC(=O)c2cc(NC(=O)c3ccc(Cl)cc3F)c[nH]2)cc1C(=O)NCCN1CCOCC1 [Compound A-17] | – | – | – | – | 12 to 32 (≈ 23.2 to 61.9 µM) | 4 to 12 (≈ 7.74 to 23.2 µM) | 4 to 12 (≈ 7.74 to 23.2 µM) | > 32 | ≤ 4 | ≤ 4 | – | – |
| Cn1cc(NC(=O)c2cc(NC(=O)c3ccc(Cl)cc3F)c[nH]2)cc1C(=O)NCCN1CCCC1 [Compound A-19] | + (+ = 12 ≦ MIC ≦ 32) | >32 µg/mL | +++ (+++ = MIC ≦ 4) | +++ (+++ = MIC ≦ 4) | – | – | – | – | – | – | ++ (++ = 4 < MIC < 12) | +++ (+++ = MIC ≦ 4) |
| Cn1cc(NC(=O)c2cc(NC(=O)c3cc(NC(=O)c4ccc(Cl)cc4)c[nH]3)cn2C)cc1C(=O)NCCN1CCOCC1 [Compound A-34] | +++ (+++ = MIC ≦ 4) | + (+ = 12 ≦ MIC ≦ 32) | ++ (++ = 4 < MIC < 12) | + (+ = 12 ≦ MIC ≦ 32) | – | – | – | – | – | – | – | – |
| Cn1cc(NC(=O)c2cc(NC(=O)c3ccc(F)cc3F)cn2C)cc1C(=O)NCCN1CCOCC1 [Compound B-2] | ++ (++ = 4 < MIC < 12) | >32 µg/mL | +++ (+++ = MIC ≦ 4) | +++ (+++ = MIC ≦ 4) | – | – | – | – | – | – | – | – |
| Cn1cc(NC(=O)c2cc(NC(=O)c3ccc(Cl)cc3)cn2C)cc1C(=O)NCCN1CCOCC1 [Compound B-57] | + (+ = 12 ≦ MIC ≦ 32) | >32 µg/mL | +++ (+++ = MIC ≦ 4) | +++ (+++ = MIC ≦ 4) | – | – | – | – | – | – | – | – |

Now from value to compound, other results behind:

| Minimum Inhibitory Concentration (MIC) [1] | Minimum Inhibitory Concentration (MIC) [4] | Minimum Inhibitory Concentration (MIC) (E. faecalis ATCC 29212) | Minimum Inhibitory Concentration (MIC) (S. pneumoniae ATCC 49619) | MIC ([1]; Bacillus cereus, ATCC11778, read-out: Minimum Inhibitory Concentration (MIC)) [µg/mL] | MIC [2, 5] [µg/mL] | MIC [3, 5] [µg/mL] | MIC ([4]; Candida albicans, ATCC38247, read-out: Minimum Inhibitory Concentration (MIC)) [µg/mL] | MIC (E. faecalis ATCC 29212; Enterococcus faecalis, ATCC29212, read-out: Minimum Inhibitory Concentration (MIC)) [µg/mL] | MIC (S. pneumoniae ATCC 49619; Streptococcus pneumoniae, ATCC49619, read-out: Minimum Inhibitory Concentration (MIC)) [µg/mL] | SMILES | Minimum Inhibitory Concentration (MIC) [2] | Minimum Inhibitory Concentration (MIC) [3] |
| --- | --- | --- | --- | --- | --- | --- | --- | --- | --- | --- | --- | --- |
| ++ (++ = 4 < MIC < 12) | >32 µg/mL | +++ (+++ = MIC ≦ 4) | +++ (+++ = MIC ≦ 4) | – | – | – | – | – | – | Cn1cc(NC(=O)c2cc(NC(=O)c3cc(NC(=O)c4ccc(F)c(F)c4)cn3C)cn2C)cc1C(=O)NCCN1CCOCC1 [Compound B-31] | – | – |
| + (+ = 12 ≦ MIC ≦ 32) | >32 µg/mL | + (+ = 12 ≦ MIC ≦ 32) | + (+ = 12 ≦ MIC ≦ 32) | – | – | – | – | – | – | Cn1cc(NC(=O)c2cc(NC(=O)c3cc(NC(=O)c4cccc(F)c4)cn3C)cn2C)cc1C(=O)NCCN1CCOCC1 [Compound B-38] | – | – |
| ++ (++ = 4 < MIC < 12) | >32 µg/mL | ++ (++ = 4 < MIC < 12) | +++ (+++ = MIC ≦ 4) | – | – | – | – | – | – | Cn1cc(NC(=O)c2cc(NC(=O)c3cc(NC(=O)c4ccc(F)cc4Cl)cn3C)cn2C)cc1C(=O)NCCN1CCOCC1 [Compound B-45] | – | – |
| +++ (+++ = MIC ≦ 4) | >32 µg/mL | +++ (+++ = MIC ≦ 4) | +++ (+++ = MIC ≦ 4) | – | – | – | – | – | – | Cn1cc(NC(=O)c2cc(NC(=O)c3cc(NC(=O)c4ccc(F)c(Cl)c4)cn3C)cn2C)cc1C(=O)NCCN1CCOCC1 [Compound B-46] | – | – |
| >32 µg/mL | >32 µg/mL | >32 µg/mL | >32 µg/mL | – | – | – | – | – | – | Cn1cc(NC(=O)c2cc(NC(=O)c3cc(NC(=O)c4c(Cl)cccc4Cl)cn3C)cn2C)cc1C(=O)NCCN1CCOCC1 [Compound B-52] | – | – |
| +++ (+++ = MIC ≦ 4) | >32 µg/mL | +++ (+++ = MIC ≦ 4) | +++ (+++ = MIC ≦ 4) | – | – | – | – | – | – | Cn1cc(NC(=O)c2cc(NC(=O)c3cc(NC(=O)c4ccc(Cl)cc4Cl)cn3C)cn2C)cc1C(=O)NCCN1CCOCC1 [Compound B-55] | – | – |
| + (+ = 12 ≦ MIC ≦ 32) | >32 µg/mL | ++ (++ = 4 < MIC < 12) | ++ (++ = 4 < MIC < 12) | – | – | – | – | – | – | Cn1cc(NC(=O)c2cc(NC(=O)c3cc(NC(=O)c4cccc(Cl)c4)cn3C)cn2C)cc1C(=O)NCCN1CCOCC1 [Compound B-59] | – | – |
| + (+ = 12 ≦ MIC ≦ 32) | >32 µg/mL | + (+ = 12 ≦ MIC ≦ 32) | + (+ = 12 ≦ MIC ≦ 32) | – | – | – | – | – | – | Cn1cc(NC(=O)c2cc(NC(=O)c3cc(NC(=O)c4ccccc4Cl)cn3C)cn2C)cc1C(=O)NCCN1CCOCC1 [Compound B-60] | – | – |
| + (+ = 12 ≦ MIC ≦ 32) | >32 µg/mL | ++ (++ = 4 < MIC < 12) | + (+ = 12 ≦ MIC ≦ 32) | – | – | – | – | – | – | Cn1cc(NC(=O)c2cc(NC(=O)c3cc(NC(=O)c4cccc(C(F)(F)F)c4)cn3C)cn2C)cc1C(=O)NCCN1CCOCC1 [Compound B-70] | – | – |
| + (+ = 12 ≦ MIC ≦ 32) | >32 µg/mL | ++ (++ = 4 < MIC < 12) | +++ (+++ = MIC ≦ 4) | – | – | – | – | – | – | Cn1cc(NC(=O)c2cc(NC(=O)c3cc(NC(=O)c4ccc(C(F)(F)F)cc4)cn3C)cn2C)cc1C(=O)NCCN1CCOCC1 [Compound B-71] | – | – |

Reference: patent publication US7348427B2, “Antipathogenic benzamide compounds” (Genesoft Pharmaceuticals, Inc., priority 2001, dated 2008)
